Test results: patent US8758816B2, “Compositions comprising azelastine and methods of use thereof” (priority 2004, dated 2014)
Where a name gives a salt, the structure may show the parent alone.

Test system: patients with seasonal allergic rhinitis (SAR)
Test: MP 428 two-week randomized double-blind study: Total Nasal Symptom Score (TNSS), change from baseline
Format: in vivo, human
Design: key to Change from Baseline in AM TNSS, Mean / Change from Baseline in AM TNSS, LS Mean / Change from Baseline in AM TNSS, Median: TNSS sum of 4 symptoms each 0-3 (0=none, 3=severe); change from baseline
Conditions: for AUC of Change from Baseline in TNSS (AM and PM Combined), Mean / AUC of Change from Baseline in TNSS (AM and PM Combined), Median / AUC of Change from Baseline in TNSS (AM and PM Combined), LS Mean: Day 1 to Day 14; for AUC of Change from Baseline in TNSS (AM and PM Combined), LS Mean: ANCOVA
Experimental: A two-week, randomized, double-blind study, which evaluated the effects of the co-administration of ASTELIN® (azelastine hydrochloride (HCl)) and FLONASE® (fluticasone propionate) compared to either product alone in patients with seasonal allergic rhinitis (SAR) was conducted during the 2006 Texas mountain cedar season. After a 5-day placebo lead-in period, 151 patients with moderate-to-severe allergic rhinitis symptoms were randomized to either: (1) (49 total patients) ASTELIN® (azelastine hydrochloride (HCl)) plus placebo saline nasal spray 2 sprays per nostril, 15 minutes apart, twice daily (AM & PM); (2) (50 total patients) FLONASE® (fluticasone propionate) plus placebo saline nasal spray, 2 sprays per nostril, 15 minutes apart, once daily (AM) and two sessions of placebo saline nasal spray, 2 sprays per nostril, 15 minutes apart (PM); or (3) (52 total patients) the co-administration of ASTELIN® (azelastine hydrochloride (HCl)) 2 sprays per nostril plus FLONASE® (fluticasone propionate) 2 sprays per nostril (AM), 15 minutes apart, and ASTELIN® (azelastine hydrochloride (HCl)) 2 sprays per nostril plus placebo saline nasal spray, 15 minutes apart, (PM) for a 2-week double-blind treatment period.
The primary efficacy variable was the change from baseline in the Total Nasal Symptom Score (TNSS), which comprised sneezing, itchy nose, runny nose, and nasal congestion (individual symptoms scores were assigned a value between 0 and 3, where 0=no symptoms and 3=severe symptoms). This study was not statistically designed to assess the differences between ASTELIN® and FLONASE®.

[1] = Day 12, Per-Protocol Population
[2] = Day 13, Intent-to-Treat Population
[3] = Day 13, Per-Protocol Population
[4] = Day 14, Intent-to-Treat Population
[5] = Day 14, Per-Protocol Population
[6] = Overall (Day 2 to Day 14), Intent-to-Treat Population
[7] = Overall (Day 2 to Day 14), Per-Protocol Population

CN1CCCC(n2nc(Cc3ccc(Cl)cc3)c3ccccc3c2=O)CC1 (racemic) [Azelastine, (±)-1-(2H)-phthalazinone, 4-[(4-chlorophenyl)methyl]-2-(hexahydro-1-methyl-1H-azepin-4-yl)-, mono-hydrochloride]
Percent Change from Baseline in PM TNSS, Median (Day 12, Intent-to-Treat Population): −25.00%
Change from Baseline in AM and PM Combined TNSS, LS Mean (Day 12, Intent-to-Treat Population, ANCOVA model): −5.46
Change from Baseline in AM and PM Combined TNSS, LS Mean [1]: −5.40
Change from Baseline in AM and PM Combined TNSS, Mean [1]: −5.54
Change from Baseline in AM and PM Combined TNSS, Median [1]: −5.00
Percent Change from Baseline in AM and PM Combined TNSS, LS Mean [1]: −27.82%
Percent Change from Baseline in AM and PM Combined TNSS, Mean [1]: −28.25%
Percent Change from Baseline in AM and PM Combined TNSS, Median [1]: −25.86%
Change from Baseline in AM TNSS, LS Mean [2]: −2.55
Change from Baseline in AM TNSS, Mean [2]: −2.50
Change from Baseline in AM TNSS, Median [2]: −1.80
Change from Baseline in AM and PM Combined TNSS, Mean [2]: −5.70
Change from Baseline in AM and PM Combined TNSS, Median [2]: −5.30
Change from Baseline in PM TNSS, LS Mean [2]: −3.11
Change from Baseline in PM TNSS, Mean [2]: −3.21
Change from Baseline in PM TNSS, Median [2]: −3.00
Percent Change from Baseline in AM TNSS, LS Mean [2]: −26.36%
Percent Change from Baseline in AM TNSS, Mean [2]: −26.20%
Percent Change from Baseline in AM TNSS, Median [2]: −18.37%
Percent Change from Baseline in AM and PM Combined TNSS, LS Mean [2]: −29.24%
Percent Change from Baseline in AM and PM Combined TNSS, Mean [2]: −29.35%
Percent Change from Baseline in AM and PM Combined TNSS, Median [2]: −26.15%
Percent Change from Baseline in PM TNSS, LS Mean [2]: −32.19%
Percent Change from Baseline in PM TNSS, Mean [2]: −32.27%
Percent Change from Baseline in PM TNSS, Median [2]: −33.33%
Change from Baseline in AM and PM Combined TNSS, LS Mean (Day 13, Intent-to-Treat Population, ANCOVA model): −5.65
Change from Baseline in AM and PM Combined TNSS, LS Mean [3]: −5.59
Change from Baseline in AM and PM Combined TNSS, Mean [3]: −5.70
Change from Baseline in AM and PM Combined TNSS, Median [3]: −5.30
Percent Change from Baseline in AM and PM Combined TNSS, LS Mean [3]: −29.06%
Percent Change from Baseline in AM and PM Combined TNSS, Mean [3]: −29.35%
Percent Change from Baseline in AM and PM Combined TNSS, Median [3]: −26.15%
Change from Baseline in AM TNSS, LS Mean [4]: −2.56
Change from Baseline in AM TNSS, Mean [4]: −2.52
Change from Baseline in AM TNSS, Median [4]: −2.00
Change from Baseline in AM and PM Combined TNSS, Mean [4]: −5.62
Change from Baseline in AM and PM Combined TNSS, Median [4]: −5.30
Change from Baseline in PM TNSS, LS Mean [4]: −3.00
Change from Baseline in PM TNSS, Mean [4]: −3.10
Change from Baseline in PM TNSS, Median [4]: −2.80
Percent Change from Baseline in AM TNSS, LS Mean [4]: −26.51%
Percent Change from Baseline in AM TNSS, Mean [4]: −26.44%
Percent Change from Baseline in AM TNSS, Median [4]: −20.00%
Percent Change from Baseline in AM and PM Combined TNSS, LS Mean [4]: −28.70%
Percent Change from Baseline in AM and PM Combined TNSS, Mean [4]: −28.86%
Percent Change from Baseline in AM and PM Combined TNSS, Median [4]: −25.00%
Percent Change from Baseline in PM TNSS, LS Mean [4]: −31.07%
Percent Change from Baseline in PM TNSS, Mean [4]: −31.14%
Percent Change from Baseline in PM TNSS, Median [4]: −28.57%
Change from Baseline in AM and PM Combined TNSS, LS Mean (Day 14, Intent-to-Treat Population, ANCOVA model): −5.56
Change from Baseline in AM and PM Combined TNSS, LS Mean [5]: −5.50
Change from Baseline in AM and PM Combined TNSS, Mean [5]: −5.62
Change from Baseline in AM and PM Combined TNSS, Median [5]: −5.30
Percent Change from Baseline in AM and PM Combined TNSS, LS Mean [5]: −28.52%
Percent Change from Baseline in AM and PM Combined TNSS, Mean [5]: −28.86%
Percent Change from Baseline in AM and PM Combined TNSS, Median [5]: −25.00%
AUC of Change from Baseline in TNSS (AM and PM Combined), Mean (Intent-to-Treat Population): −60.38
AUC of Change from Baseline in TNSS (AM and PM Combined), Median (Intent-to-Treat Population): −56.00
AUC of Change from Baseline in TNSS (AM and PM Combined), LS Mean (Intent-to-Treat Population): −59.72
Change from Baseline in AM TNSS, LS Mean [6]: −2.22
Change from Baseline in AM TNSS, Mean [6]: −2.21
Change from Baseline in AM TNSS, Median [6]: −1.86
Change from Baseline in AM and PM Combined TNSS, Mean [6]: −4.73
Change from Baseline in AM and PM Combined TNSS, Median [6]: −4.24
Change from Baseline in PM TNSS, LS Mean [6]: −2.57
Change from Baseline in PM TNSS, Mean [6]: −2.51
Change from Baseline in PM TNSS, Median [6]: −2.38
Percent Change from Baseline in AM TNSS, LS Mean [6]: −23.13%
Percent Change from Baseline in AM TNSS, Mean [6]: −23.29%
Percent Change from Baseline in AM TNSS, Median [6]: −19.23%
Percent Change from Baseline in AM and PM Combined TNSS, LS Mean [6]: −24.78%
Percent Change from Baseline in AM and PM Combined TNSS, Mean [6]: −24.47%
Percent Change from Baseline in AM and PM Combined TNSS, Median [6]: −24.26%
Percent Change from Baseline in PM TNSS, LS Mean [6]: −26.45%
Percent Change from Baseline in PM TNSS, Mean [6]: −25.39%
Percent Change from Baseline in PM TNSS, Median [6]: −21.68%
Change from Baseline in AM and PM Combined TNSS, LS Mean (Overall (Day 2 to Day 14), Intent-to-Treat Population, ANCOVA model): −4.76
Change from Baseline in AM and PM Combined TNSS, LS Mean [7]: −4.73
Change from Baseline in AM and PM Combined TNSS, Mean [7]: −4.73
Change from Baseline in AM and PM Combined TNSS, Median [7]: −4.24
Percent Change from Baseline in AM and PM Combined TNSS, LS Mean [7]: −24.72%
Percent Change from Baseline in AM and PM Combined TNSS, Mean [7]: −24.47%
Percent Change from Baseline in AM and PM Combined TNSS, Median [7]: −24.26%
AUC of Change from Baseline in TNSS (AM and PM Combined), Mean (Per-Protocol Population): −60.38
AUC of Change from Baseline in TNSS (AM and PM Combined), Median (Per-Protocol Population): −56.00
AUC of Change from Baseline in TNSS (AM and PM Combined), LS Mean (Per-Protocol Population): −59.23
